# Marks after values point to notes of the source that are not given here.
# Tests used:
# [1] = molecular target: T1, kappa (OP2) opioid receptor (Cavia porcellus, UniProt P41144); assay: Guinea pig ileal longitudinal muscle (GPI) smooth muscle assay, antagonism of ethylketazocine (EKC); format: cell-based; conditions: for Kb: antagonist concentration 100 nM, read-out: Antagonist Potency Ke κ(OP2) EKC
# T1 construct: a strip of longitudinal muscle with the myenteric plexus attached was prepared; from tissue; host or cells: guinea pig ileal longitudinal muscle with myenteric plexus
# Description: (§1) 1. Guinea Pig Ileal Longitudinal Muscle (GPI). Ilea from guinea pigs were taken approximately 10 cm from the ileocecal junction, and a strip of longitudinal muscle with the myenteric plexus attached was prepared by the method of H. B. Rang et al., Brit. J Pharmacol., 1964, 22, 356. A 1 cm portion of this strip was then mounted between two platinum electrodes placed in a 10 ml organ bath and connected to an isometric transducer, contractions were recorded on a polygraph. Contractions of the ileal strip were initiated by supramaximal rectangular pulses in all preparations (80 V of 0.5 ms duration at a frequency of 0.1 Hz). Krebs bicarbonate solution containing […] chloropheniramine maleate was the bathing solution and was continuously bubbled with 95% O2 and 5% CO2. The organ bath was maintained at 36-37° C. The longitudinal strip was allowed to equilibrate with continuous stimulation for a minimum of 90 min. Cumulative concentration-response curves were determined after drugs were added to the bath in preselected amounts and washed out with buffer after noting their maximum effects.
# (§2) The standard agonists employed were [D-Ala^2, D-Leu^5]enkephalin (DADLE) (D), morphine (M) and ethylketazocine (EKC); these are selective for delta (D), mu (M) and kappa (EKC) opioid receptors, respectively. Concentration-response curves were obtained in the absence (control) and the presence of the antagonist and were determined as IC50 values. The IC50 ratio represents the IC50 in the presence of the antagonist divided by the control IC50 value in the same tissue. A concentration independent value of antagonist potency is calculated from the equation, Ke=[antagonist]/(IC50 ratio-1).
# [2] = tested on: μ(OP3) opioid receptor; assay: Guinea pig ileal longitudinal muscle (GPI) smooth muscle assay, antagonism of morphine; format: cell-based; conditions: agonist morphine, antagonist concentration 100 nM
# Description: as §1, §2
# [3] = molecular target: T2, δ(OP1) opioid receptor (Mus musculus, UniProt P32300); assay: Mouse vas deferens (MVD) smooth muscle assay, antagonism of DADLE; format: cell-based
# T2 construct: Both vasa deferentia were dissected out of mice and mounted singly; from tissue; host or cells: mouse vas deferens
# Description: 2. Mouse Vas Deferens (MvD). This assay was performed according to the description by G. Henderson et al., Brit. J. Pharmacol., 1972, 46,764. Both vasa deferentia were dissected out of mice and mounted singly through two platinum electrodes in a 10 ml organ bath. The bath contained Krebs bicarbonate solution that was continuously bubbled with 95% O2 and 5% CO2. The organ bath was maintained at 37° C. The tissue was attached to an isometric transducer and stimulated transmurally with rectangular pulses ([…], 1 ms duration, supramaximal voltage). Drugs were added cumulatively to the bath in preselected amounts and washed out after noting their maximum effects.
# as §2
# [4] = molecular target: T3, mu opioid receptor (Mus musculus, UniProt P42866); assay: Mouse tail flick assay, antagonism of morphine (μ) by ICV antagonist; format: in vivo; conditions: antagonist ICV 50 pmol, agonist morphine
# T3 construct: from tissue; host or cells: living mouse (ICV dosing)
# [5] = molecular target: T4, delta opioid receptor (Mus musculus, UniProt P32300); assay: Mouse tail flick assay, antagonism of DSLET (δ) by ICV antagonist; format: in vivo; conditions: antagonist ICV 50 pmol, agonist DSLET
# T4 construct: from tissue; host or cells: living mouse (ICV dosing)
# [6] = molecular target: T5, kappa opioid receptor (Cavia porcellus, UniProt P41144); assay: GPI preparation, kappa antagonist potency against U-50488H; format: cell-based, guinea pig
# T5 construct: a strip of longitudinal muscle with the myenteric plexus attached was prepared; from tissue; host or cells: guinea pig ileal longitudinal muscle with myenteric plexus
# Description: as §1
# [7] = molecular target: T6, wt κ receptor (Rattus norvegicus, UniProt P34975); assay: Competition binding with [3H]diprenorphine, whole cell binding, COS-7 cells, wt κ
# T6 construct: expressed in transfected cells; host or cells: COS-7 (per the earlier reading)
# Text: (§3) The effects of mutational exchange of Glu297 in the κ receptor and Lys303 in the μ receptor on the binding affinity of representative compounds of the invention were examined using techniques known in the art.
# [8] = molecular target: T7, κ[E297K] receptor (Rattus norvegicus, UniProt P34975, E297K); assay: Competition binding with [3H]diprenorphine, whole cell binding, COS-7 cells, κ[E297K]
# T7 construct: expressed in transfected cells; host or cells: COS-7 (per the earlier reading)
# Text: as §3
# [9] = molecular target: T8, wt μ receptor (Rattus norvegicus, UniProt P33535); assay: Competition binding with [3H]diprenorphine, whole cell binding, COS-7 cells, wt μ; conditions: [3H]diprenorphine competition; COS-7 whole cell binding; read-out: Ki ± SEM, wt μ
# T8 construct: expressed in transfected cells; host or cells: COS-7 (per the earlier reading)
# Text: as §3
# [10] = tested on: wt μ receptor; assay: as above; parameters: species or system rat; conditions: wt μ
# Text: as §3
# [11] = molecular target: T9, μ[K303E] receptor (Rattus norvegicus, UniProt P33535, K303E); assay: Competition binding with [3H]diprenorphine, whole cell binding, COS-7 cells, μ[K303E]
# T9 construct: expressed in transfected cells; host or cells: COS-7 (per the earlier reading)
# Text: as §3
# [12] = Butorphanol-induced feeding; format: in vivo; conditions: FIG. 3
# Text: (§4) The ability of a compound to decrease butorphanol-, DAMGO-, U50,488-, 24-hour deprivation-, and Neuropeptide Y-induced feeding can be determined using models known in the art. See for example, A. S. Levine et al., Brain Research, 1998, 534, 60-64; and D. C. Jewett, et al., 1998, Society for Neuroscience Abstracts, 1, Abstract #276.10, 705.
# [13] = DAMGO-induced feeding; format: in vivo; conditions: FIG. 4
# Text: as §4
# [14] = U50,488-induced feeding; format: in vivo; conditions: FIG. 5
# Text: as §4
# [15] = 24-hour deprivation-induced feeding; format: in vivo; conditions: FIG. 6
# Text: as §4
# [16] = Neuropeptide Y-induced feeding; format: in vivo; conditions: FIG. 7
# Text: as §4
# [17] = molecular target: T10, kappa opioid receptor (Mus musculus, UniProt P33534); assay: Mouse abdominal stretch assay, antagonism of U-50488H antinociception by SC antagonist; format: in vivo; parameters: from tissue; host or cells: living mouse (SC dosing)
# [18] = molecular target: T10, kappa opioid receptor; assay: Mouse tail flick assay, antagonism of U-50488H (κ) by ICV antagonist; format: in vivo; parameters: from tissue; host or cells: living mouse (ICV or SC dosing)
# [19] = in vitro smooth muscle Ke, relative to nor-BNI
compound,measurement,setting,value
"N=C(N)Nc1ccc2[nH]c3c(c2c1)C[C@@]1(O)[C@H]2Cc4ccc(O)c5c4[C@@]1(CCN2CC1CC1)[C@H]3O5.O.O.O=C(O)C(F)(F)F.O=C(O)C(F)(F)F [Compound 15, 5′-Guanidinyl-17-cyclopropylmethyl-6,7-didehydro-4,5-α-epoxy-3.14-dihydroxyindolo[2′,3′:6,7]morphinan Ditrifluoroacetate Dihydrate]",Antagonist Potency Ke κ(OP2) EKC,"[1]; GPI, agonist EKC, antagonist concentration 20 nM (*)",0.144* nM
same,"selectivity ratio κ/δ, fold greater than that of nor-BNI",[1]; [19],42 fold
same,"selectivity ratio κ/μ, fold greater than that of nor-BNI",[1]; [19],9 fold
same,kappa opioid receptor selectivity (in words),"[1]; in vitro, versus morphine and DADLE antagonism, Ditrifluoroacetate Dihydrate",potent and highly selective
same,Antagonist Potency Ke μ(OP3) Morphine,[2],30.00 nM
same,Antagonist Potency Ke δ(OP1) DADLE,"[3]; agonist DADLE, antagonist concentration 100 nM",115 nM
same,delta antagonist activity of NTI associated with the compound (in words),[3]; in vitro,"little, if any"
same,"ED50 Ratio (limits), Morphine (μ)",[4],0.8 (0.5-1.2)
same,"ED50 Ratio (limits), DSLET (δ)",[5],1.4 (1.0-2.2)
same,Kb,"[6]; GPI, agonist U-50488H, read-out: Ke",0.041 nM
same,"potency relative to nor-BNI, antagonism of U-50488H","[6]; GPI, agonist U-50488H, relative to nor-BNI",5 fold
same,Selectivity Ratio κ/δ,"[6]; δ agonist [D-Ala2, D-Leu5]enkephalin, κ agonist U-50488H",2797
same,Selectivity Ratio κ/μ,"[6]; μ agonist morphine, κ agonist U-50488H",728
same,Ki,"[7]; [3H]diprenorphine competition, COS-7 whole cell binding, read-out: Ki ± SEM, wt κ",0.09 ± 0.01 nM
same,Fana = Ki(analog)/Ki(nor-BNI on the wt κ receptor),[7]; wt κ,0.75
same,Ki,"[8]; [3H]diprenorphine competition, COS-7 whole cell binding, read-out: Ki ± SEM, κ[E297K]",12.9 ± 0.48 nM
same,"Fmut = mutational factor, Ki(mutant receptor)/Ki(wt κ receptor)",[8]; κ[E297K],143
same,Ki,[9],9.23 ± 1.39 nM
same,"Fmut = mutational factor, Ki(mutant receptor)/Ki(wt κ receptor)",[10],103
same,Ki,"[11]; [3H]diprenorphine competition, COS-7 whole cell binding, read-out: Ki ± SEM, μ[K303E]",0.06 ± 0.02 nM
same,"Fmut = mutational factor, Ki(mutant receptor)/Ki(wt κ receptor)",[11]; μ[K303E],0.67
same,effect on Butorphanol-induced feeding,[12],does not decreases
same,effect on DAMGO-induced feeding,[13],decreases
same,"effect on U50,488-induced feeding",[14],decreases
same,effect on 24-hour deprivation-induced feeding,[15],decreases
same,effect on Neuropeptide Y-induced feeding,[16],does not decreases
same,"potency relative to nor-BNI, SC-administered","[17]; SC, relative to nor-BNI",greater than 50 times
same,"ED50 Ratio (limits), U-50488H antinociception","[17]; antagonist SC 0.05 μmol kg−1, U-50488H SC",3.0 (1.9-5.0)
same,"ED50 Ratio (limits), U-50488H antinociception","[17]; antagonist SC 2.0 μmol kg−1, U-50488H SC",3.8 (2.5-6.3)
same,in vivo kappa selectivity (in words),"[18]; in vivo studies, Tables 2 and 3",selective κ-antagonist
same,"ED50 Ratio (limits), U-50488H (κ)","[18]; mouse tail flick, antagonist ICV 50 pmol, agonist U-50488H",4.5 (3.4-6.3)
"CCNC(=N)Nc1ccc2[nH]c3c(c2c1)C[C@@]1(O)[C@H]2Cc4ccc(O)c5c4[C@@]1(CCN2CC1CC1)[C@H]3O5.O.O.O=C(O)C(F)(F)F.O=C(O)C(F)(F)F [Compound 16, 5′-N-Ethylguanidinyl-17-cyclopropylmethyl-6,7-didehydro-4,5-α-epoxy-3,14-dihydroxyindolo[2′,3′:6,7]morphinan Ditrifluoroacetate Dihydrate]",Kb,"[1]; GPI, agonist EKC",0.157 nM
same,Antagonist Potency Ke μ(OP3) Morphine,[2],19.00 nM
"CCCCNC(=N)Nc1ccc2[nH]c3c(c2c1)C[C@@]1(O)[C@H]2Cc4ccc(O)c5c4[C@@]1(CCN2CC1CC1)[C@H]3O5.O.O.O=C(O)C(F)(F)F.O=C(O)C(F)(F)F [Compound 17, 5′-N-Butylguanidinyl-17-cyclopropylmethyl-6,7-didehydro4,5α-epoxy-3,14-dihydroxyindolo[2′,3′:6,7]morphinan Ditrifluoroacetate Dihydrate]",Kb,"[1]; GPI, agonist EKC",0.09 nM
"CNC(=N)Nc1ccc2[nH]c3c(c2c1)C[C@@]1(O)[C@H]2Cc4ccc(O)c5c4[C@@]1(CCN2CC1CC1)[C@H]3O5.O.O.O=C(O)C(F)(F)F.O=C(O)C(F)(F)F [Compound 18, 5′-Methylguanidinyl-17-cyclopropylmethyl-6,7-didehydro4,5α-epoxy-3,14-dihydroxyindolo[2′,3′:6,7]morphinan Ditrifluoroacetate Dihydrate]",Kb,"[1]; GPI, agonist EKC",0.59 nM
same,Antagonist Potency Ke μ(OP3) Morphine,[2],10.8 nM

# — patent US6500824B1, “Kappa (OP2) opioid receptor antagonists” (Regents of the University of Minnesota, priority 1998, dated 2002)
